From article PMC5716189, “Characterization of the APLF FHA–XRCC1 phosphopeptide interaction and its structural and functional implications” (Nucleic Acids Research, 2017)
Each block holds one molecule with its values, some of them ahead of it. Square brackets hold non-standard residues; d marks the D form. Peptide text beside a SMILES is read from it. * marks the point of attachment. FITC = O=C1OC2(c3ccc(O)cc3Oc3cc(O)ccc32)c2ccc(NC(=S)*)cc21; pT = C[C@@H](OP(=O)(O)O)[C@H](N)C(=O)O; pS = N[C@@H](COP(=O)(O)O)C(=O)O

Columns and labels:
[1] = target: T1, APLF FHA domain (Homo sapiens, UniProt Q8IW19); experiment: Fluorescence polarization peptide binding assay; details: FP; for Kd: room temperature
T1 construct: His6 (N, cleaved yes); TEV cleavage site (N, cleaved yes); made in house; host or cells: Escherichia coli Rosetta2 (DE3)
T1 sequence (Q8IW19 1-108 limits assumed): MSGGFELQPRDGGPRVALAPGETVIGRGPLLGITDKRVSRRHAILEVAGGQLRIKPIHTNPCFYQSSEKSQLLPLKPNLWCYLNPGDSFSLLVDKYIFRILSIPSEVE
Protocol: Apparent dissociation constants for peptide-protein interactions were determined based on fluorescence polarization measurements of fluorescein-labeled peptides on a POLARstar Omega fluorescence polarization (FP) reader (BMG Labtech) using an excitation wavelength of 485 nm and the emission measured at 520 nm at room temperature. XRCC1 phosphopeptides used in FP studies (Table 1) were labeled with an N-terminal FITC-Gly-Gly fluorophore. Measurements were made as a function of pH in the range from pH 7.4 to 5.5 in FP buffer consisting of 25 mM HEPES, 25 mM MES, 150 mM NaCl, 1 mM EDTA, 2 mM DTT and 0.05% Tween 20. Samples of the APLF FHA domain in FP buffer were prepared at pH 7.4, 7.0, 6.5, 6.0 and 5.5. Samples corresponding to each titration step were put in a 96-well black flat-bottomed plate and the fluorescence emission polarization was determined. The FP results were normalized to a 0–1 scale after curve-fitting for the direct comparison of results from different conditions. Data for the interaction of a phosphopeptide (L) with APLF FHA (M) were fit to a single-site binding equation as described previously ([39]). All phosphopeptides used were synthesized by either GenScript or Thermo Fisher.

[2] = target: T1, APLF FHA domain; experiment: 1H,15N-HSQC NMR titration with inorganic anions; format: binding; details: for Kd: amide shifts of the more strongly shifted resonances, 25 mM HEPES, 25 mM MES, 150 mM NaCl, 1 mM EDTA, 1:1 binding, read-out: phosphate Kd; for amide shift changes of U-[15N] APLF FHA produced by the anion: 0-150 mM titrant, 0.1 mM protein
Protocol: (§1) All NMR experiments were performed at 35°C on a Varian INOVA 500 MHz spectrometer equipped with a triple-resonance, pulsed-field gradient cryo-probe, with the exception of the ^31P experiments, which were collected on an Agilent/Varian DD2 600 MHz spectrometer equipped with a heteronuclear broadband probe. The backbone chemical shift assignments were made from 3D HNCACB, CBCA(CO)NH, HNCA, HN(CO)CA, HNCO and HN(CA)CO experiments that were obtained using Agilent BioPack pulse sequences (Agilent). The 3D experiments were acquired with non-uniform sampling to speed up the data acquisition ([36],[37]). Since several of the amide resonances were broadened as a result of the intermediate amide proton exchange dynamics at pH 7.4, a low pH buffer, 25 mM sodium citrate, 50 mM NaCl, and 1 mM EDTA, pH 5.5, was used for the amide backbone assignments. For phosphopeptide titration experiments, 2D ^1H,^15N-HSQC spectra were acquired on a sample containing 0.1 mM U-[^15N] APLF-FHA in 25 mM HEPES, 25 mM MES, 150 mM NaCl, 1 mM EDTA, pH 7.4 as a function of phosphopeptide concentration. The interaction of sodium phosphate, sodium sulfate, and sodium ethylsulfate with U-[^15N] APLF FHA sample was also studied by monitoring the ^1H,^15N-HSQC spectrum of the labeled protein as a function of the anion concentration. The volume of peptide or anion added never exceeded more than 10% of the total volume.

[3] = 31P NMR pH titration of free phosphopeptides (pK determination); format: physicochemical; details: pH 8.5 to 4.0, 0.5 mM peptide, 50 mM sodium acetate, 50 mM sodium cacodylate, 1 mM EDTA, TMP reference, Henderson-Hasselbalch fit
Protocol: 1D ^31P-NMR experiments were employed to determine the pK values of the phosphate groups in phosphopeptides and to characterize the interaction of the phosphopeptide with the APLF-FHA domain. Experimental parameters included a ^31P offset of 2.48 ppm, a sweep width of 20 ppm, an acquisition time of 1 sec, a relaxation delay of 1 sec, and 1024 scans were acquired per experiment. Phosphopeptide concentrations of 0.5 mM were used in all 1D ^31P NMR experiments. A two-dimensional selective ^1H,^31P-HSQC experiment ([38]) was used to assign the phosphoserine and phosphothreonine resonances. […]
Measurements of the pK values of the free phosphopeptides were performed in 50 mM sodium acetate, 50 mM sodium cacodylate, 1 mM EDTA as a function of pH with 0.5 mM tri-methylphosphate (TMP) added as a chemical shift reference. Small amounts of 0.1 N NaOH or HCl were titrated to vary the pH in the range from 8.5 to 4.0 in 0.2–0.4 pH decrements. pK values were determined by fitting the pH-dependent chemical shift data to a Henderson–Hasselbalch equation: where δP and δU correspond to the protonated and unprotonated chemical shifts. The dependence of the phosphopeptide ^31P NMR shifts as a function of APLF FHA domain concentration were determined in 25 mM HEPES, 25 mM MES, 150 mM NaCl, 1 mM EDTA, pH 7.4, with 0.25 mM TMP added as a chemical shift reference. […]

[4] = target: T1, APLF FHA domain; experiment: NMR lineshape simulation of amide exchange data; format: binding; details: two-site exchange lineshape simulation; pH 7.4; 35°C
Protocol: as §1, with “APLF-FHA in 25 mM HEPES, 25 mM MES, 150 mM NaCl, 1 mM EDTA, pH 7.4 as a function of phosphopeptide concentration. The interaction of sodium phosphate, sodium sulfate, and sodium ethylsulfate with U-[^15N] APLF FHA sample was also studied by monitoring the ^1H,^15N-HSQC spectrum of the labeled protein as a function of the anion concentration. The volume of peptide or anion added never exceeded more than 10% of the total volume.” left out
The lineshape simulations utilized a Mathematica algorithm (Wolfram Research, Champaign, IL, USA) based on the two-site exchange formalism given by Rogers and Woodbrey ([40]). The fraction of bound ligand, pB, is initially calculated using the above relation, the FHA domain and peptide concentrations and an assumed Kd value which is then varied to optimize the agreement with the experimental spectra. […]

[5] = free amino acid; cited from earlier work
Source text: This selectivity implies that most phosphopeptides formed by CK2-dependent phosphorylation contain multiple anionic residues and are often multiply phosphorylated.

[6] = target: T1, APLF FHA domain; experiment: 1H,15N-HSQC NMR phosphopeptide titration; format: binding; details: pH 7.4, 0.1 mM U-[15N] APLF FHA, 25 mM HEPES, 25 mM MES, 150 mM NaCl, 1 mM EDTA, 35°C
Protocol: as §1

[7] = pH 6.0, FITC-Gly-Gly labelled peptide, FP buffer
[8] = pH 6.5, FITC-Gly-Gly labelled peptide, FP buffer
[9] = pH 7.4, N-terminal FITC-Gly-Gly labelled peptide, 25 mM HEPES, 25 mM MES, 150 mM NaCl, 1 mM EDTA, 2 mM DTT, 0.05% Tween 20, single-site fit

- fold reduction of Kd relative to XRCC1pSpT-18 ([1]; pH 7.4): 10 fold
Molecule: C[C@H](NC(=O)[C@H](Cc1ccc(O)cc1)NC(=O)[C@@H]1CCCN1C(=O)[C@H](CC(=O)O)NC(=O)CNC(=O)CNC(=S)Nc1ccc2c(c1)C(=O)OC21c2ccc(O)cc2Oc2cc(O)ccc21)C(=O)NCC(=O)N[C@@H](COP(=O)(O)O)C(=O)N[C@H](C(=O)N[C@@H](CC(=O)O)C(=O)N[C@@H](CCC(=O)O)C(=O)N[C@@H](CC(N)=O)C(=O)N[C@@H](CCC(=O)O)C(=O)N[C@@H](CC(=O)O)C(=O)N[C@@H](CCC(=O)O)C(=O)N[C@@H](CCC(=O)O)C(=O)N[C@@H](CCC(=O)O)C(=O)N[C@@H](Cc1c[nH]cn1)C(=O)N[C@@H](CCC(N)=O)C(=O)N[C@@H](CCC(=O)O)C(=O)O)[C@@H](C)OP(=O)(O)O [XRCC1pSpTEE-18] ({FITC}-GGDPYAG[pS][pT]DENEDEEEHQE-OH; C-terminus assumed)

- amide shift changes of U-[15N] APLF FHA produced by the anion ([2]; pH 7.4, listed as sodium ethylsulfate): negligible shifts
Molecule: CCOS(=O)(=O)[O-].[Na+] [ethylsulfate, sodium ethylsulfate]
- amide shift changes of U-[15N] APLF FHA produced by the anion ([2]; pH 7.4): fails to produce any significant amide shifts

- Kd ([1]; pH 5.5, FITC-Gly-Gly labelled peptide, FP buffer): > 60 µM
- Kd [1, 7]: > 25 µM
- fold reduction of binding affinity at pH 6.0 ([1]; pH 6.0 relative to pH 7.4): > 8 fold
- Kd [1, 8]: 8.23 ± 1.89 µM
- fold reduction of binding affinity at pH 6.5 ([1]; pH 6.5 relative to pH 7.4): less than 2.5 fold
- Kd ([1]; pH 7.0, FITC-Gly-Gly labelled peptide, FP buffer): 4.67 ± 0.04 µM
- Kd [1, 9]: 3.31 ± 0.15 µM
- τB, lifetime of the protein-peptide complex [4]: 0.9 ms
Molecule: C[C@H](NC(=O)[C@H](Cc1ccc(O)cc1)NC(=O)[C@@H]1CCCN1C(=O)[C@H](CC(=O)O)NC(=O)CNC(=O)CNC(=S)Nc1ccc2c(c1)C(=O)OC21c2ccc(O)cc2Oc2cc(O)ccc21)C(=O)NCC(=O)N[C@@H](COP(=O)(O)O)C(=O)N[C@H](C(=O)N[C@@H](CC(=O)O)C(=O)N[C@@H](CCC(=O)O)C(=O)N[C@@H](CC(N)=O)C(=O)N[C@H](C(=O)N[C@@H](CC(=O)O)C(=O)N[C@@H](CO)C(=O)N[C@@H](CCC(=O)O)C(=O)N[C@@H](CCC(=O)O)C(=O)N[C@@H](Cc1c[nH]cn1)C(=O)N[C@@H](CCC(N)=O)C(=O)N[C@@H](CCC(=O)O)C(=O)O)[C@@H](C)O)[C@@H](C)OP(=O)(O)O [XRCC1pSpT-18] ({FITC}-GGDPYAG[pS][pT]DENTDSEEHQE-OH; C-terminus assumed)

- Kd [6]: 80 µM
Molecule: C[C@H](NC(=O)[C@H](Cc1ccc(O)cc1)NC(=O)[C@@H]1CCCN1)C(=O)NCC(=O)N[C@@H](COP(=O)(O)O)C(=O)N[C@H](C(=O)N[C@@H](CC(=O)O)C(=O)N[C@@H](CCC(=O)O)C(=O)N[C@@H](CC(N)=O)C(=O)O)[C@@H](C)OP(=O)(O)O [XRCC1pSpT-9] (H-PYAG[pS][pT]DEN-OH)

- Kd [1, 9]: > 20 µM
Molecule: C[C@H](NC(=O)[C@H](Cc1ccc(O)cc1)NC(=O)[C@@H]1CCCN1C(=O)[C@H](CC(=O)O)NC(=O)CNC(=O)CNC(=S)Nc1ccc2c(c1)C(=O)OC21c2ccc(O)cc2Oc2cc(O)ccc21)C(=O)NCC(=O)N[C@@H](CO)C(=O)N[C@H](C(=O)N[C@@H](CC(=O)O)C(=O)N[C@@H](CCC(=O)O)C(=O)N[C@@H](CC(N)=O)C(=O)N[C@H](C(=O)N[C@@H](CC(=O)O)C(=O)N[C@@H](CO)C(=O)N[C@@H](CCC(=O)O)C(=O)N[C@@H](CCC(=O)O)C(=O)N[C@@H](Cc1c[nH]cn1)C(=O)N[C@@H](CCC(N)=O)C(=O)N[C@@H](CCC(=O)O)C(=O)O)[C@@H](C)O)[C@@H](C)OP(=O)(O)O [XRCC1SpT-18] ({FITC}-GGDPYAGS[pT]DENTDSEEHQE-OH; C-terminus assumed)

- Kd [1, 7]: > 300 µM
- Kd [1, 8]: > 50 µM
- Kd [1, 9]: 9.94 ± 4.6 µM
Molecule: C[C@H](NC(=O)[C@H](Cc1ccc(O)cc1)NC(=O)[C@@H]1CCCN1C(=O)[C@@H](N)CC(=O)O)C(=O)NCC(=O)N[C@@H](CCC(=O)O)C(=O)N[C@H](C(=O)N[C@@H](CC(=O)O)C(=O)N[C@@H](CCC(=O)O)C(=O)N[C@@H](CC(N)=O)C(=O)N[C@H](C(=O)N[C@@H](CC(=O)O)C(=O)N[C@@H](CO)C(=O)N[C@@H](CCC(=O)O)C(=O)N[C@@H](CCC(=O)O)C(=O)N[C@@H](Cc1c[nH]cn1)C(=O)N[C@@H](CCC(N)=O)C(=O)N[C@@H](CCC(=O)O)C(=O)O)[C@@H](C)O)[C@@H](C)OP(=O)(O)O [XRCC1EpT-18] (H-DPYAGE[pT]DENTDSEEHQE-OH)

The next lines start with the molecule.

Molecule: O=P(O)(O)O [phosphate, sodium phosphate]
- Kd ([2]; pH 5.5): 92500 ± 17800 µM
- Kd ([2]; pH 7.4): 14100 ± 3700 µM

Molecule: VYDEpSpTDEESEN [XRCC4pSpT-12, 12-residue XRCC4 peptide phosphorylated on Ser232/Thr233]
- pK of pSer phosphate [3]: 6.90
- pK of pThr phosphate [3]: 7.22

Molecule: C[C@@H](OP(=O)(O)O)[C@H](N)C(=O)O [phosphothreonine]
- phosphate pK (dianionic/monoanionic) [5]: ~5.95

Molecule: N[C@@H](COP(=O)(O)O)C(=O)O [phosphoserine]
- phosphate pK (dianionic/monoanionic) [5]: approximately 5.75

Molecule: O=S(=O)([O-])[O-].[Na+].[Na+] [sulfate, sodium sulfate]
- amide shift changes of U-[15N] APLF FHA produced by the anion ([2]; pH 7.4): perturbs the same resonances that are sensitive to phosphate, although to a lesser extent
